According to the NIST ThermoML archive (doi:10.1021/je050525c):
Numbers after ± are expanded uncertainties.

Conditions: Liquid, Ebulliometric method (Recirculating still)

Structure (SMILES) | vapor or sublimation pressure (179.68 K) [kPa] | vapor or sublimation pressure (190.14 K) [kPa] | vapor or sublimation pressure (200.68 K) [kPa] | vapor or sublimation pressure (210.03 K) [kPa]
CC [ethane] | 77 ± 4 | 136 ± 4 | 223 ± 4 | 336 ± 4
FC(F)(F)F [tetrafluoromethane] | 679 ± 5 | 1058 ± 6 | 1575 ± 7 | 2163 ± 9
